Test results as given in patent US11618747B2, “LXR modulators with bicyclic core moiety” (OrsoBio, Inc., priority 2018, dated 2023).
Read-outs that look alike come from different tables or passages of the source.

Experiments:
full length (FL) LXRα = target: T1, full length (FL) LXRα (Homo sapiens, UniProt Q13133); experiment: LXR Gal4 reporter transient transfection assay (FL-M2H Gal4α); assay type: cell-based; details: HEK293 cells
T1 construct: the full length (FL) proteins of LXRα (amino acids 1-447); NP005684; expressed in transfected cells; host or cells: HEK293
T1 sequence (Q13133 1-447): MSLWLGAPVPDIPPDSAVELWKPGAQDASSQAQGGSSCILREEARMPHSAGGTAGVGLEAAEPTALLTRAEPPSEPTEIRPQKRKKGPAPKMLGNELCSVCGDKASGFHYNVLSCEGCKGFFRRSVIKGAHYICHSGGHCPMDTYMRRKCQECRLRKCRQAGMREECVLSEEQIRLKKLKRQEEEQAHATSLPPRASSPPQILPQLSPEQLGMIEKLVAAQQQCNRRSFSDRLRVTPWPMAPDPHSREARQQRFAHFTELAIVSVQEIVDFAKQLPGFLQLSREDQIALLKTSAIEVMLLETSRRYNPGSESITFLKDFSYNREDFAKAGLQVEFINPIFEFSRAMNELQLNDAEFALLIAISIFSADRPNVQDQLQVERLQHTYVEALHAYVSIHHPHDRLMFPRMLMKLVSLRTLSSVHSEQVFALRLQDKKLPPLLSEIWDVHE
How it was run: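 Cells (HEK293, 3.5×10^4/well) were plated 16-20 h, transfected with LXR, cofactor and reporter plasmids, treated with compound after 4 h, and lysed after a further 16 h. Interaction of LXR constructs with SRC1 or NCoR is detected by GAL4-driven Firefly luciferase.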

[1] = Short term HFD mouse model: plasma and liver exposure; assay type: in vivo, mice (C57BL/6J); details: HFD mice, 4 h after last dose
Description: Short Term HFD Mouse Model:
The in vivo transcriptional regulation of several LXR target genes by LXR modulators was assessed in mice.
For this, C57BL/6J were purchased from Elevage Janvier (Rennes, France) at the age of 8 weeks. After an acclimation period of two weeks, animals were preferred on a high fat diet (HFD) (Ssniff Spezialdiäten GmbH, Germany, Surwit EF D12330 mod, Cat. No. E15771-34), with 60 kcal % from fat plus 1% (w/w) extra cholesterol (Sigma-Aldrich, St. Louis, Mo.) for 5 days. Animals were maintained on this diet during treatment with LXR modulators. The test compounds were formulated in 0.5% hydroxypropylmethylcellulose (HPMC) and administered in three doses (from 1.5 to 20 mg/kg each) by oral gavage according to the following schedule: on day one, animals received treatment in the morning and the evening (ca. 17:00), on day two animals received the final treatment in the morning after a 4 h fast and were sacrificed 4 h thereafter. Animal work was conducted according to the national guidelines for animal care in Germany.
Upon termination, liver was collected, dipped in ice cold PBS for 30 seconds and cut into appropriate pieces. Pieces were snap frozen in liquid nitrogen and stored at −80° C. For the clinical chemistry analysis from plasma, alanine aminotransferase (ALT, IU/mL), cholesterol (CHOL, mg/dL) and triglycerides (TG, mg/dL) were determined using a fully-automated bench top analyzer (Respons®910, DiaSys Greiner GmbH, Flacht, Germany) with system kits provided by the manufacturer.

[2] = full length LXRα, read-out: FL-M2H Gal4α (EC50 range)

Structure (SMILES)	EC50 (full length (FL) LXRα; [2]) [µM]	liver exposure 4 h ([1]; three oral doses of 20 mg/kg)	liver/plasma ratio 4 h ([1]; three oral doses of 20 mg/kg)	plasma exposure 4 h ([1]; three oral doses of 20 mg/kg)	liver exposure 4 h ([1]; three oral doses of 10 mg/kg)	liver/plasma ratio 4 h ([1]; three oral doses of 10 mg/kg)	plasma exposure 4 h ([1]; three oral doses of 10 mg/kg)	other results
Cc1ccc(S(=O)(=O)n2c(-c3cccc(N4CC(C(=O)O)C4)c3)c(-c3ccsc3C#N)c3cc(F)c(Cl)cc32)cc1 [3/43]	0.1 to 1							
N#Cc1nccnc1-c1c(-c2cccc(-c3cc(F)c(C(=O)O)cc3Cl)c2)n(S(=O)(=O)c2ccc(C(F)F)cc2)c2ccc(F)cc12 [11/11]	< 0.1	D (>10 μM)	D (>100)	D (D: <100 nM)				
N#Cc1ccccc1-c1c(-c2cccc(-c3ccc(C(=O)O)cc3Cl)c2)n(S(=O)(=O)c2ccc(C(F)F)cc2)c2ccc(F)cc12 [11/33]	< 0.1	C (1 μM to ≤10 μM)	C (30 to ≤100)	C (C: 100 nM to <300 nM)				FL-M2H Gal4α efficacy (value in brackets) (full length (FL) LXRα): 164%; EC50 (full length (FL) LXRα; read-out: FL-M2H Gal4α potency): 0.0013 µM
Cc1ccc(S(=O)(=O)n2c(-c3cccc(N4CC(C(=O)O)C4)c3)c(-c3ccsc3C#N)c3cc(Cl)ccc32)cc1 [3/44]	< 0.1							
N#Cc1cccc(C#N)c1-c1c(-c2cccc(-c3cc(F)c(C(=O)O)cc3Cl)c2)n(S(=O)(=O)c2ccc(C(F)F)cc2)c2ccc(F)cc12 [11/65]	< 0.1				C (1 μM to ≤10 μM)	C (30 to ≤100)	D (D: <100 nM)	
N#Cc1cccc(C#N)c1-c1c(-c2cccc(-c3ccc(C(=O)O)cc3F)c2)n(S(=O)(=O)c2ccc(C(F)F)cc2)c2ccc(F)cc12 [11/51]	< 0.1				C (1 μM to ≤10 μM)	C (30 to ≤100)	D (D: <100 nM)	
N#Cc1sccc1-c1c(-c2cccc(-c3ccc(C(=O)O)cc3Cl)c2)n(S(=O)(=O)c2ccc(C(F)(F)F)nc2)c2ccc(F)cc12 [11/16]	< 0.1	C (1 μM to ≤10 μM)	B (5 to ≤30)	C (C: 100 nM to <300 nM)				
O=C(O)c1ccc(-c2cccc(-c3c(-c4c(Cl)cccc4Cl)c4cc(F)ccc4n3S(=O)(=O)c3ccc(C(F)F)cc3)c2)c(Cl)c1 [11/13]	< 0.1	C (1 μM to ≤10 μM)	A (<5)	A (A: >1 μM)				
N#Cc1cccc(C#N)c1-c1c(-c2cccc(-c3ccc(C(=O)NCCS(=O)(=O)O)cc3Cl)c2)n(S(=O)(=O)c2ccc(C(F)F)cc2)c2ccc(F)cc12 [10/1]	< 0.1				B (300 nM to ≤1 μM)	C (30 to ≤100)	D (D: <100 nM)	
CC(=O)NS(=O)(=O)c1ccc(-c2cccc(-c3c(-c4c(C#N)cccc4C#N)c4cc(F)ccc4n3S(=O)(=O)c3ccc(C(F)F)cc3)c2)c(Cl)c1 [8/8]	< 0.1				B (300 nM to ≤1 μM)	B (5 to ≤30)	C (C: 100 nM to <300 nM)	
Cc1ccc(S(=O)(=O)n2c(-c3cccc(N4CC(C(=O)O)C4)c3)c(-c3ccsc3C#N)c3cc(F)c(F)cc32)cc1 [3/42]	0.1 to 1							
Cc1ccc(S(=O)(=O)n2c(-c3cccc(N4CC(C(=O)O)C4)c3)c(-c3ccsc3C#N)c3cc(F)ccc32)cc1 [3/32]	0.1 to 1							
Cc1ccc(S(=O)(=O)n2c(-c3cccc(N4CC(C(=O)O)C4)c3)c(-c3ccsc3C#N)c3cc(C)ccc32)cc1 [3/46]	< 0.1							
